The values below come from publication PMC6235670, “An mTOR Signaling Modulator Suppressed Heterotopic Ossification of Fibrodysplasia Ossificans Progressiva” (Stem Cell Reports, 2018).

As a reminder, the IC50 is the concentration needed to halve the response being measured.

One data set concerns BMP signaling (BRE-Luc). Description: BRE-Luc reporter assay in FOP-iMSCs. The format is cell-based, human. The conditions noted are these: activin A and compounds for 16 hr. The protocol: (§1) FOP-iMSCs transiently transfected with BRE-Luc (A) or CAGA-Luc (B) with CMV-Renilla were stimulated with activin A and compounds for 16 hr (A) or 3 hr (B). […] One day after siRNA transfection, chondrogenic induction with activin A was initiated, and after 7 days the cells were harvested. […] FOP-iMSCs cultured with 10% FBS were treated with 100 nM rapamycin (Rapa) or TAK 165 (TAK) for 2 hr, and the cells were harvested. […] 1 μM TAK, 1 μM CP (CP-724714, another selective ERBB2 inhibitor), or 10 nM Rapa were applied in the experiments.
(In a reporter assay the amount or activity of a reporter protein is the signal.)

The test system of a further data set is FOP-iMSCs. In words: 2D chondrogenic induction of FOP-iMSCs with activin A (GAG, Alcian blue). Type of data set: cell-based, human. As to conditions: activin A, 7 days.
The subject of another data set is BMP type I receptors. The arrangement: method as in Lewis and Prywes, 2013. As to conditions: ref Lewis and Prywes, 2013; cited from earlier work.
Data set [1] deals with TGF-β signaling (CAGA-Luc). Description: CAGA-Luc reporter assay in FOP-iMSCs. Type of data set: cell-based, human. The conditions noted are these: activin A and compounds for 3 hr. How it is done: as §1
The test system of data set [2] is BMP-7-induced HO model mice (C57BL/6). In words: BMP-7-induced HO model mice. From the text:
(§2) MTOR s604 […]tt […]at […]
For X- ray images, mice were anesthetized with isoflurane (5% for induction, 2-3% for maintenance, Abbvie), immobilized and X-rayed using µFX-1000 (Fujifilm) or DX-50 (Faxitron Bioptics). µCT images were scanned using X-ray CT systems (inspeXio SMX-100CT, Shimadzu) and analyzed with TRI/3D-BON software (Ratoc System Engineering) according to the manufacturer's instructions. Four weeks after injection, the injected sites were harvested, fixed with 4% paraformaldehyde for 24 h, embedded in paraffin, and sectioned and stained […]
BMP-7-induced HO model mice. BMP -7 (2 µ g/mouse) was injected into the right gastrocnemius muscle of C57BL/6NJcl mice (6-8 weeks, male, CLEA Japan), and compounds were administered once a day, five times a week (intraperitoneal administration). Mice were analyzed 2 weeks after injection. […]

The test system of data set [3] is NOD/SCID mice transplanted with FOP-iMSCs.
From the text: as §2
For X- ray images, mice were anesthetized with isoflurane (5% for induction, 2-3% for maintenance, Abbvie), immobilized and X-rayed using µFX-1000 (Fujifilm) or DX-50 (Faxitron Bioptics). µCT images were scanned using X-ray CT systems (inspeXio SMX-100CT, Shimadzu) and analyzed with TRI/3D-BON software (Ratoc System Engineering) according to the manufacturer's instructions. […]
Activin-A-induced HO model transplanted with FOP-iMSCs. FOP- (right leg) and resFOP-iMSCs (left leg) (4 x 10^6 cells, respectively) were transplanted into the gastrocnemius muscle of NOD/ShiJic-scid Jcl (NOD/SCID) mice (8 weeks, male, CLEA Japan) with C3H -DoxOn-hINHBA (5 x 10^5 cells), which can continuously expose Activin-A to the transplanted iMSCs in vivo ( Hino et al., 2015) . In the Dox-induced group, 1 mg/mL Dox (Sigma-Aldrich) was administered via drinking water with 10 mg/mL sucrose (Nacalai Tesque) for two weeks after transplantation. Compounds were intraperitoneally administered once a day, five times a week. Eight weeks after transplantation, the transplanted cells were harvested , fixed with 4% paraformaldehyde for 24 h, embedded in paraffin, and sectioned and stained with HE, von Kossa, Safranin O, human specific anti-Vimentin antibody and Collagen I antibody as previously described (Hino et al., 2015; Umeda et al., 2012; […]

The test system of another data set is mTOR signaling (p-S6). In words: p-S6 western blotting during chondrogenic induction of FOP-iMSCs with activin A. The format is cell-based, human. As to conditions: 1 µM. How it is done: Western blotting. SDS- PAGE and blotting with whole-cell lysates were performed by standard procedures.
Protein bands were detected with ECL Prime Western Blotting Detection Reagent (GE Healthcare) and visualized using BIO-RAD Molecular Imager® Chemi-DocTM XRS+ with Image LabTM software (Bio-Rad).
All data (relative intensity) were corrected by β-actin.
Antibodies for western blotting and immunostaining.
N ame Company Cat. No Concentration
Human Activin RIA/ALK-2 Antibody R&D Systems) AF637 1:100
Anti-human Vimentin antibody Abcam ab16700 1:40
Collagen I Antibody Novus NB600- 1:100
Anti-rabbit IgG, HRP-linked Antibody Cell Signaling #7074 1:10000 […]
2nd Goat anti-Rabbit IgG (H+L) Secondary Antibody, Invitrogen A-11008 1:100 antibody Alexa Fluor® 488 conjugate
Goat anti-Rabbit IgG (H+L) Secondary Antibody, Invitrogen A-21428 1:500
For orientation: A western blot detects proteins with antibodies after separation by electrophoresis.

For a further data set, the system named is ATDC5/FOP-ACVR1 cells. Description: ALP assay (HTS and dose-response) in ATDC5/FOP-ACVR1. As to conditions: Mus musculus, 72 h, read-out: IC50 (ALP assay). The format is cell-based, mouse. How it is done:
ATDC5/FOP-ACVR1 cells were plated in 96-well white plates (2,000 cells/well/40 μL, Corning) in DMEM/F-12 supplemented with 5% (v/v) FBS. Two hours after incubation at 37°C under 5% CO2, 10 μL of test compounds (final 1 μM) was added, and the assay plates were incubated at 37°C under 5% CO2. After 3 days of incubation, ALP activity was measured using an Amplite Colorimetric Alkaline Phosphatase Assay Kit (AAT Bioquest) according to the manufacturer's protocol.
Generation of ATDC5 stably expressing ACVR1. WT - or FOP-ACVR1 was inserted into doxycycline (Dox)- […]
(KW111/WT-ACVR1 or KW111/FOP-ACVR1). KW111/WT-ACVR1 or KW111/FOP-ACVR1 and PBaseII […]
FuGeneHD® (Promega) according to the manufacturer’s protocol, and the neomycin- resistant population (500 µg/mL) was selected. […]
HTS campaign and follow-up screens. […] After 3 days incubation, Alkaline Phosphatase activity (ALP) or AlamarBlue activity was measured using Amplite™ Colorimetric Alkaline Phosphatase Assay Kit (AAT Bioquest) or alamarBlue® Cell Viability Reagent (Thermo Fisher Scientific) according to the manufacturer’s protocol, respectively. […]
was measured on POWERSCAN4 (DS Pharma Biomedical) or EnVision® Multilabel Reader (PerkinElmer).
Inhibitory effects of the screened compounds are given as percent inhibition, which was calculated using the following equation: (1-([Abs of compound] - [Abs of Min])/([Abs of Max] - [Abs of Min]))× 100, where [Abs of Max] and [Abs of Min] are the mean Abs of DMSO control and 1 µM DMH-1, respectively. The Z’ factor, which is widely used as a measure of the assay quality of each plate, was calculated using the following equation: Z’ factor = 1 - 3 × ([SD of Max] + [SD of Min])/([Abs of Max] - [Abs of Min]) (SI Appendix, Fig.
The S/B (signal-to-background) ratio was calculated using the following equation: ([Abs of Max]/[Abs of Min]) (SI Appendix, Fig. S3B). […]

Regarding `CN1CCN(CCOc2cc(OC3CCOCC3)c3c(Nc4c(Cl)ccc5c4OCO5)ncnc3c2)CC1` [AZD0530, saracatinib], the “BRE-Luc (BMP-specific luciferase reporter)” value in the data set on BMP signaling (BRE-Luc) was “inhibited”. Further, the “inhibition of glycosaminoglycan (GAG) production” value in the data set on FOP-iMSCs (1 μM) was “potent inhibition”. Besides, the “suppression of chondrogenic induction (GAG), dose dependence” value in the data set on FOP-iMSCs is “dose-dependent”. Besides, the “inhibition of BMP type I receptors” value in the data set with BMP type I receptors is given as “inhibited”. Further, the “CAGA-Luc (TGF-β-responsive luciferase reporter)” value in data set [1] was “inhibited”. Besides, in data set [2] (i.p. for 2 weeks, n=5), the “body weight change compared to vehicle group” value is “No significant differences”. In data set [2] (i.p. once daily 5 times a week for 2 weeks), the “BMP-7-induced HO (heterotopic bone volume)” value is on record as “suppressed”. Further, in data set [2] (i.p. once daily 5 times a week for 2 weeks, N = 5), the “# of HO (> 20 mm3): number of mice harboring HO” value was 1/5. In data set [3] (5 mg/kg i.p.), the “body weight change compared with vehicle group” value is “No significant differences”; the “hypertrophic chondrocytes and von Kossa- and COL1-positive bone regions” value was “fewer”. The “HO derived from FOP-iMSCs (heterotopic bone volume)” value in data set [3] (5 mg/kg i.p. once daily, five times a week, 8 weeks after transplantation) is reported as “significantly suppressed”. In the data set with mTOR signaling (p-S6), the “p-S6 levels from 2 hr after treatment” value is listed as “significantly inhibited”. In addition, the IC50 with ATDC5/FOP-ACVR1 cells was 4 nM.
